Our source for the kinact/KI values is patent US20110060012A1, “4-[3-(ARYLOXY)BENZYLIDENE]-3-METHYL PIPERIDINE 5-MEMBERED ARYL CARBOXAMIDE COMPOUNDS USEFUL AS FAAH INHIBITORS” (Pfizer Inc., priority 2008, published 2011).

The target of this experiment is T1, Human FAAH (Homo sapiens, UniProt O00519).
T1 construct: made in house
T1 sequence (O00519 1-579): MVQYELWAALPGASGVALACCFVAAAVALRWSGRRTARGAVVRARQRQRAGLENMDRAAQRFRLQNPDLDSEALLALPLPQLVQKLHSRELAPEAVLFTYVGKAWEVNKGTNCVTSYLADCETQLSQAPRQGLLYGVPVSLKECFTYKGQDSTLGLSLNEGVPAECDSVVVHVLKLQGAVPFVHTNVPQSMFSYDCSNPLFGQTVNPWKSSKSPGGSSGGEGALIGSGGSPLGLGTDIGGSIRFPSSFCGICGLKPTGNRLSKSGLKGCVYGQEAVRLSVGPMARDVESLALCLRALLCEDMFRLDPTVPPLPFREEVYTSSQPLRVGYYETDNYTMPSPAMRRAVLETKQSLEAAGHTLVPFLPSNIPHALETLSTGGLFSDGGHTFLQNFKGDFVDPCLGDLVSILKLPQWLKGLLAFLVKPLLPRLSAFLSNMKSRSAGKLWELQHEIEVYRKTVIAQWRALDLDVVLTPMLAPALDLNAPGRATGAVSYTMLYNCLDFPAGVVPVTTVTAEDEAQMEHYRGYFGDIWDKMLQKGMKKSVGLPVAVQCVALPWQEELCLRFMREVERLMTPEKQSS
Nature of the experiment: FAAH enzyme assay (glutamate dehydrogenase-coupled, oleamide substrate). Type of experiment: biochemical. The settings on record: human FAAH 1-4 nM, pH 7.4, 30° C., absorbance at 340 nm over 90 min, read-out: hFAAH Kinact/Ki. How it is done:
A FAAH enzyme assay may be carried out as described in W02006/085196 in 384-well clear polystyrene plates in a total volume of 50 μl per well. All percents are by volume. To each well was placed the reaction mixture (40 μl) containing 1-4 nM FAAH, 50 mM NaPi, pH 7.4, 3 mM α-ketoglutarate, 0.15 mM NADH, 7.5 U/ml glutamate dehydrogenase, 2 mM ADP, 1 mM EDTA, and 0.1% Triton X-100 (The concentration shown for each component is the final concentration in the assay). To this mixture was added 5 μl of a compound of Examples 1 to 20 at various concentrations prepared in 50% DMSO (or 5 μl 50% DMSO for controls). This was immediately followed by the addition of 5 μl oleamide (500 μM) dissolved in 75% EtOH/25% DMSO and the reaction mixture is mixed for 1.5 min. The final concentrations of DMSO and EtOH in the assay were each 7.5%. The reactions was then incubated at 30° C. and the absorbance at 340 nm was collected over a period of 90 min with readings taken in 30-second intervals using SpectraMax Plus^384 Microplate Spectrophotometer (Molecular Devices, Sunnyvale, Calif.). Human FAAH used in the assay was prepared as described in the patent application WO 2006/067613. The purity of the enzyme used was greater than 98% based on an analysis by SDS-polyacrylamide gel electrophoresis followed by Coomassie Blue staining.
Initial velocity data (V) is obtained from the slopes of the initial progressive curves. They are plotted as a function of substrate concentration and fit to the Michaelis-Menten equation (1) using Prism (GraphPad Software, Inc., San Diego, Calif.) software to obtain Km and Vmax values.
To obtain potencies of irreversible inhibitors, progressive curves consistent with first order inhibition kinetics (two-step irreversible inhibition mechanism) are fit to equation (2) by nonlinear least squares regressions to determine kobs values at each inhibitor concentration, where [P]t is the absorbance at time t, V0 is a constant related to the steady state rate of the uninhibited reaction, and kobs is the first order rate constant for enzyme inactivation. […]

Turning to `Cc1oncc1NC(=O)N1CC/C(=C\c2cccc(Oc3ccc(C(F)(F)F)cn3)c2)C(C)C1` (single isomer, unassigned) [Example 2, (4E)-3-methyl-N-(5-methylisoxazol-4-yl)-4-(3-{[5-(trifluoromethyl)pyridin-2-yl]oxy}benzylidene)piperidine-1-carboxamide], the kinact/KI turned out to be 2850 M⁻¹ s⁻¹.

On to `CC1CN(C(=O)Nc2cnoc2)CC/C1=C\c1cccc(Oc2ccc(C(F)(F)F)cn2)c1` (single isomer, unassigned) [Example 3, (4E)-N-isoxazol-4-yl-3-methyl-4-(3-{[5-(trifluoromethyl)pyridin-2-yl]oxy}benzylidene)piperidine-1-carboxamide], for which the kinact/KI was found to be 4350 M⁻¹ s⁻¹. The same measure for `Cc1noc(NC(=O)N2CC/C(=C\c3cccc(Oc4ccc(C(F)(F)F)cn4)c3)C(C)C2)c1C` (single isomer, unassigned) [Example 1, (4E)-N-(3,4-dimethylisoxazol-5-yl)-3-methyl-4-(3-{[5-(trifluoromethyl)pyridin-2-yl]oxy}benzylidene)piperidine-1-carboxamide]: 624 M⁻¹ s⁻¹.
